Measurements published in ChEMBL document CHEMBL4196171, “Design of Gut-Restricted Thiazolidine Agonists of G Protein-Coupled Bile Acid Receptor 1 (GPBAR1, TGR5)” (J Med Chem, 2018).
≈ marks a conversion by molar mass, not a printed value.

Legend:
[1] = Solubility in FeSSIF solution at 1 mg/ml at […] by HPLC with UV detector based assay; format: physicochemical
[2] = Cmax in C57BL/6 mouse plasma at 10 mg/kg, po by HPLC and mass spectrometry; format: ADME, organism-based; set-up: dose 10 mg/kg, route oral
[3] = Plasma concentration in C57BL/6 mouse at 30 mg/kg, po measured after 8 hrs by HPLC and mass spectrometry; format: ADME, organism-based
[4] = Plasma concentration in C57BL/6 DIO mouse at 30 mg/kg, po measured after 4 to 16 hrs post dose by HPLC and mass spectrometry; format: ADME, organism-based; conditions: in vivo
[5] = Apparent permeability from apical to basolateral side in MDCK cells at 10 uM by HPLC-MS/MS method; format: ADME, cell-based, Canis lupus familiaris; conditions: dog
[6] = Drug concentration in bile/gall bladder of C57BL/6 mouse at 30 mg/kg, po measured after 8 hrs by HPLC and mass spectrometry; format: ADME, organism-based; conditions: read-out: Drug uptake
[7] = Plasma concentration in C57BL/6 DIO mouse at 100 mg/kg, po measured after 4 to 16 hrs post dose by HPLC and mass spectrometry; format: ADME, organism-based; conditions: in vivo
[8] = Drug recovery in C57BL/6 mouse feces at 10 mg/kg, po after 48 hrs by LC-MS/MS method; format: ADME, organism-based; conditions: faeces, read-out: Drug recovery
[9] = Drug recovery in C57BL/6 mouse bile/gall bladder at 30 mg/kg, po by LC-MS/MS method; format: ADME, organism-based; conditions: read-out: Drug recovery
[10] = Apparent permeability from basolateral to apical side in MDCK cells at 10 uM by HPLC-MS/MS method; format: ADME, cell-based, Canis lupus familiaris; conditions: dog
[11] = AUC in C57BL/6 mouse plasma at 10 mg/kg, po by HPLC and mass spectrometry; format: ADME, organism-based

| SMILES | concentration at 8 h [3] [ng/mL] | concentration at 8 h [6] [nM] | also measured |
| --- | --- | --- | --- |
| O=C(NC[C@H](O)[C@@H](O)[C@H](O)[C@H](O)CO)c1ccc(COc2cc(Cl)c(CN3CSC[C@H]3C(=O)N3CCN(C4CC4)c4ccccc43)cc2Cl)cc1 | < 2 | 90 | solubility [1]: 820 µg/mL (≈ 1080 µM); Cmax [2]: 2 ng/mL; Drug uptake [4]: Not Active; Papp A→B at 10 µM [5]: < 0.01 ×10⁻⁶ cm/s; Drug uptake [7]: Not Active; dose excreted at 48 h [8]: 83%; dose excreted [9]: < 0.01%; Papp B→A at 10 µM [10]: 0.07 ×10⁻⁶ cm/s; AUC [11]: < 5 ng·h/mL |
| O=C([C@@H]1CCCN1Cc1cc(Cl)ccc1Cl)N1CCN(C2CC2)c2ccccc21 | – | – | solubility [1]: 360 µg/mL (≈ 836 µM) |
| O=C(c1cccnc1Oc1cc(Cl)ccc1Cl)N1CCN(C2CC2)c2ccccc21 | – | – | solubility [1]: < 50 µg/mL |
| CN(C[C@H](O)[C@@H](O)[C@H](O)[C@H](O)CO)C(=O)CCCCc1cc(Cl)c(CN2CSC[C@H]2C(=O)N2CCN(C3CC3)c3ccccc32)cc1Cl | 3.6 | 1300 | – |
| O=C(CCCCc1cc(Cl)c(CN2CSC[C@H]2C(=O)N2CCN(C3CC3)c3ccccc32)cc1Cl)N[C@@H](C(=O)O)[C@@H](O)[C@H](O)[C@H](O)CO | 28.1 | 3900 | – |
| O=C(NCCCCCc1cc(Cl)c(CN2CSC[C@H]2C(=O)N2CCN(C3CC3)c3ccccc32)cc1Cl)NCP(=O)(O)O | 24.8 | 3100 | – |
| CN(C[C@H](O)[C@@H](O)[C@H](O)[C@H](O)CO)C(=O)CC[C@H](NC(=O)CCCCc1cc(Cl)c(CN2CSC[C@H]2C(=O)N2CCN(C3CC3)c3ccccc32)cc1Cl)C(=O)O | 2.3 | 1900 | – |
| O=C(O)CN(CCCCCc1cc(Cl)c(CN2CSC[C@H]2C(=O)N2CCN(C3CC3)c3ccccc32)cc1Cl)CC(=O)O | – | 4700 | – |
| O=C(O)CNC(=O)CNC(=O)CNC(=O)CCCCc1cc(Cl)c(CN2CSC[C@H]2C(=O)N2CCN(C3CC3)c3ccccc32)cc1Cl | < 0.5 | 600 | – |
| O=C(NCCCN(CCCNC(=O)[C@H](O)[C@@H](O)[C@H](O)[C@H](O)CO)C(=O)NCCCCOc1cc(Cl)c(CN2CSC[C@H]2C(=O)N2CCN(C3CC3)c3ccccc32)cc1Cl)[C@H](O)[C@@H](O)[C@H](O)[C@H](O)CO | – | 300 | – |
| O=C(O)CNC(=O)[C@H](CSSC[C@H](NC(=O)CC[C@H](NC(=O)CCCCc1cc(Cl)c(CN2CSC[C@H]2C(=O)N2CCN(C3CC3)c3ccccc32)cc1Cl)C(=O)O)C(=O)NCC(=O)O)NC(=O)CC[C@H](NC(=O)CCCCc1cc(Cl)c(CN2CSC[C@H]2C(=O)N2CCN(C3CC3)c3ccccc32)cc1Cl)C(=O)O | < 10 | < 100 | – |
| O=C(O)CN(C[C@H](O)[C@@H](O)[C@H](O)[C@H](O)CO)C(=O)CCCCc1cc(Cl)c(CN2CSC[C@H]2C(=O)N2CCN(C3CC3)c3ccccc32)cc1Cl | – | 3700 | – |
| O=C(NCCCCCc1cc(Cl)c(CN2CSC[C@H]2C(=O)N2CCN(C3CC3)c3ccccc32)cc1Cl)NC(CO)(CO)CO | 1.2 | 6000 | – |
| C[C@@H](NC(=O)[C@@H](C)NC(=O)[C@@H](C)NC(=O)CCCCc1cc(Cl)c(CN2CSC[C@H]2C(=O)N2CCN(C3CC3)c3ccccc32)cc1Cl)C(=O)O | 0.6 | 1700 | – |
| O=C(NCCCCCc1cc(Cl)c(CN2CSC[C@H]2C(=O)N2CCN(C3CC3)c3ccccc32)cc1Cl)N1CCN(CP(=O)(O)O)CC1 | 2.8 | 80 | – |
